From the supplement of paper PMC10307832

How the values were obtained:
Experiment in all cases: relative viability (nuclei count vs DMSO), 5 days (fraction); higher = more cells survive
[1] = compound: CC[C@H](Nc1ncnc2[nH]cnc12)c1nc2cccc(F)c2c(=O)n1-c1ccccc1 [Idelalisib] + CC(=O)c1c(C)c2cnc(Nc3ccc(N4CCNCC4)cn3)nc2n(C2CCCC2)c1=O [Palbociclib] (partner 0.5 µM)
Method in brief: (§1)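 Nuclei were stained with Hoechst during a one-step fixation (final 0.05% Triton X-100, 1% formaldehyde, 1 ug/ml Hoechst) carried out 5 days after dosing, then counted on 4× images. The cells, lung cancer lines in 1536-well plates, had been dosed by pin tool the day after seeding with one drug alone or a fixed anchor-drug dose plus five library-drug doses (not always all listed) in √10 steps. Relative viability is the nuclei count in treated wells divided by that in vehicle wells, and each value is the median of duplicate plates.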

[2] = compound: CC[C@H](Nc1ncnc2[nH]cnc12)c1nc2cccc(F)c2c(=O)n1-c1ccccc1 [Idelalisib] + Cc1nc(Nc2ncc(C(=O)Nc3c(C)cccc3Cl)s2)cc(N2CCN(CCO)CC2)n1 [Dasatinib] (partner 0.075 µM)
Method in brief: as §1

[3] = compound: Nc1nc2[nH]cc(CCc3ccc(C(=O)N[C@@H](CCC(=O)O)C(=O)O)cc3)c2c(=O)[nH]1 [Pemetrexed] + Nc1ncn([C@H]2C[C@H](O)[C@@H](CO)O2)c(=O)n1 [Decitabine] (partner 2 µM)
Method in brief: as §1

[4] = compound: Nc1nc2[nH]cc(CCc3ccc(C(=O)N[C@@H](CCC(=O)O)C(=O)O)cc3)c2c(=O)[nH]1 [Pemetrexed] + O=C(c1cc(Cc2n[nH]c(=O)c3ccccc23)ccc1F)N1CCN(C(=O)C2CC2)CC1 [Olaparib] (partner 8 µM)
Method in brief: as §1

UMC-11 gave a relative viability ([1]; first compound 0.04 µM) of 0.335, a relative viability ([1]; first compound 0.1265 µM) of 0.33 and a relative viability ([1]; first compound 0.4 µM) of 0.298. For the same cell line, the relative viability ([1]; first compound 1.265 µM) was 0.298, the relative viability ([1]; first compound 4 µM) was 0.261 and the relative viability ([2]; first compound 0.04 µM) was 0.349. It also gave a relative viability ([2]; first compound 0.1265 µM) of 0.492, a relative viability ([2]; first compound 0.4 µM) of 0.391 and a relative viability ([2]; first compound 1.265 µM) of 0.564. For the same cell line, the relative viability ([2]; first compound 4 µM) was 0.474, the relative viability ([3]; first compound 0.002 µM) was 0.849 and the relative viability ([3]; first compound 0.006325 µM) was 0.63. For the same cell line, the relative viability ([3]; first compound 0.02 µM) was 0.595, the relative viability ([3]; first compound 0.06325 µM) was 0.58 and the relative viability ([3]; first compound 0.2 µM) was 0.7. For the same cell line, the relative viability ([4]; first compound 0.002 µM) was 0.361, the relative viability ([4]; first compound 0.006325 µM) was 0.374 and the relative viability ([4]; first compound 0.02 µM) was 0.999. It also gave a relative viability ([4]; first compound 0.06325 µM) of 0.441 and a relative viability ([4]; first compound 0.2 µM) of 0.358.
